Test results as given in patent US12168665B2, “Substituted imidazo[l,2-a]pyrazines and pyrazino[l,2-a] pyrimidines as topical agents for dermatological applications” (Genesis Molecular Technologies, Inc., priority 2020, dated 2024).
“Also recorded” adds a separate entry of the source. Where two headings read alike, the source gives them in different places. Each block holds one molecule with its values, some of them ahead of it.

Experiments:
[1] = test system: TCF/LEF reporter activity; assay: Wnt/driven TCF/LEF reporter (Luc) activity in HEK293 cell line assay; format: cell-based; settings: TCF/LEF reporter (Luc)-HEK293 cells, LiCl and mouse Wnt3a stimulation, read-out: IC50 value of compounds against TCF/LEF reporter activity
Description: Assay of Wnt/driven TCF/LEF reporter (Luc) activity in a stably transfected cell line. The Wnt/driven TCF/LEF reporter (Luc) activity in a stably transfected cell line assay was performed at BPS Bioscience (San Diego, CA 92121, USA). In brief, TCF/LEF reporter (Luc)-HEK293 cells are harvested from culture in growth medium and seeded at a density of about 35,000 cells per well into a white clear-bottom 96-well microplate in 80 μL of assay medium. 20 μL of 50 mM LiCl solution in assay medium are added to each well (final concentration 10 mM), and cells are incubated at 37° C. in a CO2 incubator for 16 hours. 10 μL of threefold serial dilution of mouse Wnt3a in assay medium are added to each stimulated well. The plate is incubated at 37° C. in a CO2 incubator for 6 hours. 100 μL of ONE-Step™ Luciferase Assay buffer per well are added and the plate is shaken for 30 min prior to measuring luminescence using a luminometer.
Exemplary compounds, wherein Y is hydrogen, of the present invention were tested for Wnt/driven TCF/LEF reporter (Luc) activity in HEK293 cell line assay. […] The positive control compound for this assay is IWR-1-endo, which is known in the art as a non-CBP/β-catenin Wnt antagonist, which stabilizes Axin-dependent β-catenin destruction (Chen, B., et al., Nat. Chem. Biol. 2009; 5(2):100-107).

[2] = test system: CBP/β-catenin (Wnt-driven luciferase activity); assay: SuperTOPFLASH cell-based luciferase assay (Hek293, STF1.1); settings: Homo sapiens; Hek293 STF1.1 cells; tested at 2.5, 5, 10 and 20 μM
Description: SuperTOPFLASH Cell-based Luciferase Assay. Hek-293,STF1.1 cells are maintained in DMEM, 10% FBS, Pen-Strep supplemented with 200 μg/mL G418. On the day prior to assay, cells are split into a white, opaque 96-well plate at 10,000 cells per well in 50 μL of complete medium without G418 (for screening of Wnt-signaling inhibitors, G418 can be left out during screening process). After allowing the cells to stabilize and attach overnight, 40 μL of complete medium (without G418) containing 2.5× final concentration of compound or DMSO control is added to the cells and allowed to incubate for 1 hour at 37° C., 5% CO2 prior to adding […] of a 100 mM LiCl solution prepared in complete medium (without G418). After 24 hours, 100 µL of BrightGlo™ (Promega, Cat. #: G7573) is added to each well and the plate is shaken for 5 minutes prior to reading on the Perkin-Elmer EnVision™ Plate Reader. […]

human skin = assay: Cosmetic evaluation on human skin, topical formulation; format: in vivo; settings: 0.15% wt./wt. topical formulation twice daily, 8 weeks
Description: For cosmetic evaluation, compound 6 (0.15% wt./wt.) formulated in an aqueous based vehicle was topically applied twice daily (0.25 g formulation per application) during an 8-week testing period according to the following daytime/nighttime regimen.
During the study, subjects used no other skin care regimen. Prior to application of the test formulation, subjects washed their faces with Purpose cleanser, rinsed and then dry patted their faces. For each daytime and each nighttime application, 0.25 g of the test formulation (2 pumps from an applicator) was then applied to the entire face, around the eyes and onto the neck. Photographs (without any face and eye make-up), and self-assessment was performed before and after the 8-week period.

[3] = Stability by analytical HPLC analysis; format: physicochemical
Description: Analytical HPLC analysis was performed on an Agilent 1100 HPLC with a Phenomenex Luna C18 (2) column (3 micron, 150×4.6 mm id) at a flow rate of 0.6 mL/min, eluting with a binary solvent system A and B using a 35%-70% B in 20 min and then 70%-95% B in 5 min (gradient elution 1), or 70%-95% B in 25 min and then 95%-100% B in 3 min (gradient elution 2) (A: Milli-Q water with 0.1% TFA; B: CH3CN with 0.1% TFA). NMR spectra were recorded on a Bruker AV-300 300 MHz NMR instrument using DMSO-d6 or CDCl3 with TMS as an internal standard. Mass spectra data was obtained with Bruker Esquire Liquid Chromatography-Ion Trap Mass Spectrometer.
As is readily apparent, compound 6 is stable at room temperature both in a solid form and in organic solvents (e.g., CH3CN, and CH3OH).

[4] = test system: hapten-induced atopic dermatitis-like dermatitis; settings: preclinical study (Matsuda-Hirose 2019); cited from earlier work
[5] = animal toxicity studies and clinical studies; cited from earlier work

IC50 ([1]; Homo sapiens): > 25 µM
Structure (SMILES): O=C1[C@H](Cc2ccc(O)cc2)N2C(=O)C[C@H](CO)N(C(=O)NCc3ccccc3)[C@H]2CN1Cc1cccc2ccccc12 [Compound 2, (2R,6S,9aS)—N-benzyl-6-(4-hydroxybenzyl)-2-(hydroxymethyl)-8-(naphthalen-1-ylmethyl)-4,7-dioxohexahydro-2H-pyrazino[1,2-a]pyrimidine-1(6H)-carboxamide]

IC50 [2]: 2.5 µM
IC50 ([1]; Homo sapiens): 16 µM
Structure (SMILES): O=C1[C@H](Cc2ccc(O)cc2)N2C(=O)C[C@@H](CO)N(C(=O)NCc3ccccc3)[C@H]2CN1Cc1cccc2ccccc12 [Compound 3, (2S,6S,9aS)—N-benzyl-6-(4-hydroxybenzyl)-2-(hydroxymethyl)-8-(naphthalen-1-ylmethyl)-4,7-dioxohexahydro-2H-pyrazino[1,2-a]pyrimidine-1(6H)-carboxamide]

IC50 ([1]; Homo sapiens): 11.2 µM
Structure (SMILES): O=C1[C@H](Cc2ccc(O)cc2)N2C(=O)[C@H](CO)N(C(=O)NCc3ccccc3)[C@H]2CN1Cc1cccc2ccccc12 [Compound 4, (2S,5S,8a5)-N-benzyl-5-(4-hydroxybenzyl)-2-(hydroxymethyl)-7-(naphthalen-1-ylmethyl)-3,6-dioxohexahydroimidazo[1,2-a]pyrazine-1(5H)-carboxamide]

IC50 ([1]; Homo sapiens): > 25 µM
Structure (SMILES): O=C1[C@H](Cc2ccc(O)cc2)N2C(=O)[C@@H](CCO)N(C(=O)NCc3ccccc3)[C@H]2CN1Cc1cccc2ccccc12 [Compound 5, (2R,5S,8a5)-N-benzyl-5-(4-hydroxybenzyl)-2-(2-hydroxyethyl)-7-(naphthalen-1-ylmethyl)-3,6-dioxohexahydroimidazo[1,2-a]pyrazine-1(5H)-carboxamide]

Degradation product detected by analytical HPLC ([3]; after 4 days at room temperature): No degradation product
Stability at room temperature ([3]; solid form and organic solvents (CH3CN, CH3OH), analytical HPLC): stable
Structure (SMILES): CCCCCCCCCCCC(=O)OC[C@@H]1CC(=O)N2[C@H](CN(Cc3cccc4ccccc34)C(=O)[C@@H]2Cc2ccc(O)cc2)N1C(=O)NCc1ccccc1 [Compound 6, (2S,6S,9aS)-1-(benzylcarbamoyl)-6-(4-hydroxybenzyl)-8-(naphthalen-1-ylmethyl)-4,7-dioxooctahydro-2H-pyrazino[1,2-a]pyrimidin-2-yl)methyl dodecanoate]
Improvement of skin appearance (wrinkles, redness) (human skin): improvement of skin appearance (e.g., reducing the appearance of wrinkles and redness) is achieved; also recorded: Skin improvement (e.g., reducing the extent and appearance of wrinkles) was visible

Structure (SMILES): O=C1[C@H](Cc2ccc(O)cc2)N2C(=O)CCN(C(=O)NCc3ccccc3)[C@H]2CN1Cc1cccc2ccccc12 [ICG-001]
Effect on hapten-induced atopic dermatitis-like dermatitis [4]: prevents the emergence of hapten-induced atopic dermatitis-like dermatitis
Safety at effective levels [5]: extremely safe

Structure (SMILES): O=C(Nc1cccc2cccnc12)c1ccc(N2C(=O)[C@@H]3[C@H](C2=O)[C@@H]2C=C[C@H]3C2)cc1 [IWR-1-endo, reference compound]
IC50 [1]: 0.2 µM
